Values quoted from earlier work as cited in US20180273780A1, “WATER-BASED INK COMPOSITION FOR INK JET RECORDING AND COLORING MATERIAL LIQUID” (Seiko Epson Corporation, priority 2017, published 2018).

Q: Which “water-octanol partition coefficient (log P)” value does the source give for CCCN1CCCC1=O [1-propyl-2-pyrrolidone] here?
A: 0.67

Q: Which “water-octanol partition coefficient (log P)” value does the source give for CCCCCCOCC(O)CO (stereo not drawn) [3-(hexyloxy)-1,2-propanediol] here?
A: 1.36

Q: For CCCCOCCC(=O)N(C)C [3-butoxy-N,N-dimethylpropanamide], which “water-octanol partition coefficient (log P)” value is on record?
A: 0.86

Q: Which “water-octanol partition coefficient (log P)” value does the source give for CCCCOCCOCCO [butyl diglycol] here?
A: 0.56

Q: With CCCCC(CC)COCCOCCO (stereo not drawn) [diethylene glycol-2-ethylhexyl ether] as the compound, how does the “water-octanol partition coefficient (log P)” value read?
A: 2.4

Q: For tritrimethylolpropane, which “water-octanol partition coefficient (log P)” value is on record?
A: 0.97
